Assay results as given in US3933859A, “Dihydrocoumarin derivatives” (Hoffmann-La Roche, Inc., priority 1970, dated 1976).
Where a name gives a salt, the structure may show the parent alone.

What was measured:
noradrenaline = noradrenaline content lowering after oral administration to rats; type: in vivo, rat; details: five separate oral doses each 300 μmol/kg over 48 hours
Description: (§1) The novel compounds of formulae VII and VIII and their salts are useful for lowering the blood-pressure and for chemical sympathectomy. Thus, for example, after orally administering five separate doses each comprising 300 μmol/kg of L-6,7-diacetoxy-3-amino-hydrocoumarin hydrochloride to rats over a period of 48 hours, the noradrenaline content is lowered in the heart to 28% and in the brain to 85% of the controls. The LD50 of this hydrochloride amounts to 30-60 mg/kg i.v., 250-500 mg/kg s.c. and 1,000-2,000 mg/kg p.o.

[1] = LD50 of the hydrochloride; details: in vivo
Description: as §1

With CC(=O)Oc1cc2c(cc1OC(C)=O)OC(=O)[C@@H](N)C2 [L-6,7-diacetoxy-3-aminohydrocoumarin hydrochloride] the “noradrenaline content in the brain, lowered to % of the controls” value (noradrenaline; brain) was 85%, the “noradrenaline content in the heart, lowered to % of the controls” value (noradrenaline; heart) was 28% and the LD50 ([1]; iv) was 30 to 60 mg/kg. The LD50 ([1]; po) was 1000 to 2000 mg/kg and the LD50 ([1]; sc) was 250 to 500 mg/kg.
